Converted amounts (≈) assume the structure as drawn. “And” between values parts separate entries of the source, which are not always exact repeats. Equal entries are not always repeated.
Tests used:
Type in all cases: cell-based
HCT116 p53 +/+ = assay: MTT cytotoxicity assay, HCT116 p53 +/+; settings: replicate values
Description: (§1) IC50 was determined using an MTT assay.

HCT116 p53 −/− = assay: MTT cytotoxicity assay, HCT116 p53 -/-; settings: replicate values
Description: as §1

MDA-MB 435 = assay: MTT cytotoxicity assay, MDA-MB 435
Description: For example, compound 1-[5-chloro-2-(4-methoxy-phenyl)-3-trifluoromethyl-indol-1-yl]-ethanone, prepared under Example 2 of the present application, has shown potential anticancer activity against several cancer cell lines.
as §1

H29 = assay: MTT cytotoxicity assay, H29; settings: replicate values
Description: as §1

Skov-3 = assay: MTT cytotoxicity assay, Skov-3; settings: replicate values
Description: as §1

MCF7 = assay: MTT cytotoxicity assay, MCF7; settings: replicate values
Description: as §1

[1] = Homo sapiens, HCT-116, MTT assay

COc1ccc(-c2c(C(F)(F)F)c3cc(Cl)ccc3n2C(C)=O)cc1 [Example 2, 1-[5-chloro-2-(4-methoxy-phenyl)-3-trifluoromethyl-indol-1-yl]-ethanone]
IC50 (HCT116 p53 +/+; [1]): 14.5 µg/mL (≈ 39.4 µM) | IC50 HCT116 p53 +/+ (HCT116 p53 +/+; MTT assay): 15.4 µg/mL (≈ 41.9 µM) | IC50 (HCT116 p53 −/−; [1]): 13.2 µg/mL (≈ 35.9 µM) | IC50 HCT116 p53 −/− (HCT116 p53 −/−; MTT assay): 8.4 µg/mL and 9.4 µg/mL and 9.2 µg/mL | cytotoxicity against the MDA MB-435 cell line (MDA-MB 435; 10 micromolar (μM) concentration, MTT assay): 80.8% | IC50 (MDA-MB 435; Homo sapiens, MDA-MB-435, MTT assay, replicate values): 11.1 µg/mL (≈ 30.2 µM) | IC50 MDA-MB 435 (MDA-MB 435; MTT assay, replicate values): 8.5 µg/mL and 7.4 µg/mL and 9.6 µg/mL | IC50 (H29): 9.6 µg/mL (≈ 26.1 µM) | IC50 H29 (H29): 9.8 µg/mL (≈ 26.6 µM) | IC50 (Skov-3; Homo sapiens, SK-OV-3, MTT assay): 15.8 µg/mL (≈ 43 µM) | IC50 Skov-3 (Skov-3; MTT assay): 17.2 µg/mL (≈ 46.8 µM) | IC50 (MCF7; Homo sapiens, MCF7, MTT assay): 18.8 µg/mL (≈ 51.1 µM) | IC50 MCF7 (MCF7; MTT assay): 18 µg/mL (≈ 48.9 µM)
